# Data taken from patent US20220064167A1, “IMIDAZO-PYRAZOLE CARBOXAMIDE DERIVATIVES AS ANTICANCER AGENTS AND THE SYNTHESIS THEREOF” (AVIDIN KFT., priority 2018, published 2022).
# Legend:
# Test in all cases: viability assay (Table 3)
# Assay type in all cases: cell-based
# [1] = tested on: HL-60 (acute promyelocytic leukemia); settings: Homo sapiens, 20000 cells/well, 10 μM-0.2 nM
# Experimental: (§1) For viability assays cells were seeded in 96 well plates (MCF7 and 4T1: 6000, HL60: 120.000 cells/well) and incubated overnight. Compounds were dissolved in dimethyl sulfoxide (DMSO). Cells were treated with an increasing concentration of compounds having the general formula (I.) (156 nM-100 μM). Cell viability was determined after 72h incubation. Resazurin reagent (Sigma-Aldrich) was dissolved in PBS (pH 7.4) at 0.15 mg/ml concentration, sterile filtered (0.22 μm, Merck Millipore) and aliquoted at −20° C. Resazurin reagent (Sigma-Aldrich) was added at a final concentration of 25 μg/ml. After 2 hours incubation at 37° C. 5% CO2 fluorescence (530 nm excitation/580 nm emission) was recorded on a multimode microplate reader (Cytofluor4000, PerSeptive Biosytems). Viability was calculated with relation to untreated control cells and blank wells containing media without cells. IC50 values (50% inhibiting concentration) were calculated by GraphPad Prism® 5 (La Jolla, Calif., USA).
# (§2) Cancer cell lines were purchased from the American Type Culture Collection (ATCC, Manassas, Va., USA). HT29 (human colorectal adenocarcinoma), HL-60 (acute promyelocytic leukemia), THP-1 (acute monocytic leukemia), MOLT-4 (acute T-lymphoblastic leukemia), MV-4-11 (biphenotypic B myelomonocytic leukemia) and K-562 (erythroleukemia) cells were maintained in Roswell Park Memorial Institute 1640 medium (RPMI-1640) with 10% FCS. Media were supplemented with 2 mM GlutaMAX, and 100 U/mL penicillin, 100 μg/mL streptomycin (Life Technologies, Carlsbad, Calif., USA). Cell cultures were maintained at 37° C. in a humidified incubator in an atmosphere of 5% CO2 (Sanyo, Japan).
# (§3) Viability assays were performed as described in Example 102 with minor modification for cell density and tested concentration range. Applied cell densities: in case of human primary fibroblast 6000, for HT29 4000, for HL-60, MOLT-4, MV-4-11, THP-1, K-562 20000 cells/well. Applied compound concentration range: 10 μM-0.2 nM.
# [2] = tested on: HT29 (human colorectal adenocarcinoma); settings: HT-29, 4000 cells/well, 10 μM-0.2 nM
# Experimental: as §1, §2, §3
# K-562 (erythroleukemia) = settings: Homo sapiens, K562; 20000 cells/well, 10 μM-0.2 nM
# Experimental: as §1, §2, §3
# [3] = tested on: MOLT-4 (acute T-lymphoblastic leukemia); settings: Homo sapiens, 20000 cells/well, 10 μM-0.2 nM
# Experimental: as §1, §2, §3
# [4] = tested on: MV-4-11 (biphenotypic B myelomonocytic leukemia); settings: Homo sapiens, MV4-11; 20000 cells/well, 10 μM-0.2 nM
# Experimental: as §1, §2, §3
# [5] = tested on: THP-1 (acute monocytic leukemia); settings: Homo sapiens, 20000 cells/well, 10 μM-0.2 nM
# Experimental: as §1, §2, §3
# human primary fibroblast = settings: 6000 cells/well, 10 μM-0.2 nM
# Experimental: as §1
# Human primary fibroblasts were obtained from the skin by enzymatic digestion according to a standard protocol. Fibroblasts were grown in low glucose DMEM/F12 medium containing 15% FCS, 1% antibiotic/antimycotic (PAA, Pasching, Austria) and 1% L-glutamine solution (PAA). Fibroblasts were cultured at 37° C. and 5% CO2 in humidified conditions. […]
structure (smiles),measurement,setting,value
"CC(C)(C)Nc1c(C(C)(C)C)[nH]c2c(C(=O)Nc3ccc(O)cc3)cnn12 [Example 90, 2-(Tert-butyl)-3-(tert-butylamino)-N-(4-hydroxyphenyl)-1H-imidazo[1,2-b]pyrazole-7-carboxamide]",IC50,[1],0.0165 µM
same,IC50,[2],0.00997 µM
same,IC50,K-562 (erythroleukemia),0.0543 µM
same,IC50,[3],0.0272 µM
same,IC50,[4],0.0323 µM
same,IC50,[5],0.0259 µM
same,IC50,human primary fibroblast,> 3 µM
